Measurements taken from PMC11329928, “Design, synthesis and structure-activity relationship (SAR) studies of an unusual class of non-cationic fatty amine-tripeptide conjugates as novel synthetic antimicrobial agents” (Frontiers in Pharmacology, 2024).
Where a name gives a salt, the structure may show the parent alone.

Columns and labels:
[1] = system: Pseudomonas aeruginosa PAO1; experiment: Resting-cell viability (CFU) with 0.5 mM EDTA; format: cell-based; parameters: key to CFU's decay in the presence of 0.5 mM EDTA, Pa (data in parenthesis): (+) CFU, decay ∼1 log-unit; (−) ≤ 0.3 log-units; conditions: for CFU's decay in the presence of 0.5 mM EDTA, Pa (data in parenthesis): P. aeruginosa PAO1, 100 µM compound, 3 h incubation; for Decrease in bacterial viability compared to controls in EDTA-containing buffer, P. aeruginosa: P. aeruginosa PAO1, 100 µM, 20 mM Tris-HCl pH 7.5, 3 h, 37°C
Method: (§1) Addition of tested compounds to the culture medium had little or no effect on bacterial growth, even at a concentration of 100 μM (Table 1). Since inactivity could arise from the inability of DICAMs to cross the outer membrane, we next tested their effect on bacterial suspensions in the absence or the presence of 0.5 mM EDTA, an outer membrane permeating agent. A decrease of approximately 90% in bacterial viability was observed after 3 h treatment with DICAM 2 and DICAM 4, compared to controls in EDTA-containing buffer (Supplementary Figure S5). No variations were found with the other compounds tested (Table 1), showing that only DICAMs containing Ala/Asn- Pro -Glu tripeptides were able to access the cell membrane and kill these pathogens when the outer membrane permeability was enhanced.
(§2) For activity assays on resting cells, bacteria grown to exponential phase (OD600 ≈ 0.3) were centrifuged and washed with 20 mM Tris-HCl (pH 7.5), adjusting the final OD600 to ≈0.6 (≈10^8 CFU/mL) with the same buffer. If required, EDTA (0.5 mM final concentration) was next added and the bacterial suspension was dispensed (225 µL per well) in 96-well plates, and then treated with 100 µM DICAM (25 µL). Samples were incubated at 37°C for 3 h and turbidity measurements were taken at selected intervals, also measuring the decay in cell viability at the end of incubation. Controls with buffer (with and without 1% DMSO), 100 µM DICAM, or 0.5 mM EDTA were run in parallel.

Escherichia coli DH10B = experiment: Resting-cell viability (CFU) with 0.5 mM EDTA; format: cell-based; parameters: key to CFU's decay in the presence of 0.5 mM EDTA, Ec (data in parenthesis): (+) CFU, decay ∼1 log-unit; (−) ≤ 0.3 log-units; conditions: for Decrease in bacterial viability compared to controls in EDTA-containing buffer, E. coli: 100 µM, 20 mM Tris-HCl pH 7.5, 3 h, 37°C; for CFU's decay in the presence of 0.5 mM EDTA, Ec (data in parenthesis): E. coli DH10B, 100 µM compound, 3 h incubation
Method: as §1, §2

S. pyogenes T membrane [2] = experiment: Membrane permeation, SYTOX Green; format: cell-based, Streptococcus pyogenes
Method: (§3) Permeation and depolarization of S. pyogenes ^T membrane by DICAMs were assayed with the fluorescent probes SYTOX Green and DiSC3(5), respectively, in a Varioskan Flash microplate reader (Thermo Scientific; Spain) using FluoroNunc 96-well plates (Thermo Scientific; Spain). For permeation assays, cells were grown to an OD550 ≈ 0.3, washed once with PBS pH 7.2 (3,800 × g, 7 min, room temperature), and adjusted to a final OD550 ≈ 0.4 (∼10^8 CFU/mL) with the same buffer before mixing in the dark with SYTOX Green (5 µM final concentration). One hundred µL of this suspension was dispensed per plate well and the signal stabilization was monitored for 15 min (λex = 485 nm; λem = 520 nm). Then, 100 µL of two-fold serially diluted lipopeptide samples was added and changes in fluorescence intensity were registered for 60 min at 37°C. SYTOX Green (900 Da) binds to intracellular DNA when the cell membrane is damaged, thereby increasing fluorescence intensity ([Roth et al., 1997]). Positive controls (100% membrane permeabilization) were carried out by adding Titron X-100 (0.01% final concentration) to untreated bacterial samples ([Rathinakumar et al., 2009]). For membrane depolarization assays, 180 µL of an OD550 ≈ 0.2 culture (BHI; ≈ 10^7 CFU/mL) supplemented with DiSC3(5) (1 µM final concentration) was distributed per well, and signal stabilization was registered for 30 min (λex = 622 nm; λem = 670 nm) ([Te Winkel et al., 2016]). Subsequently, 20 µL of a two-fold serial dilution of lipopeptide in culture medium was added, and fluorescence intensity was recorded for 60 min at 37°C. Partition of DiSC3(5) to the surface of polarized cells decreases the probe fluorescence, and its release, caused by membrane depolarization, results in an increase in fluorescence. […] The background signal of controls with bacterial cells without the fluorescent probe, as well as the dye fluorescence in the presence of the tested compounds without bacteria, were also registered. No change in the fluorescence intensity of the probes occurred upon DICAM addition in the absence of bacterial cells.

S. pyogenes T membrane [3] = experiment: Membrane depolarization, DiSC3(5); format: cell-based, Streptococcus pyogenes; conditions: S. pyogenes T in BHI, OD550 ≈ 0.2, DiSC3(5) 1 µM, 37°C
Method: as §3

S. pneumoniae D39 = experiment: Viability after challenge at mid-exponential (T2) or early stationary (T3) phase; format: cell-based, Streptococcus pneumoniae; conditions: S. pneumoniae D39, 50 µM, C+Y, 37°C
Method: The effect of DICAMs at different phases of culture growth was also investigated. DICAMs (50 μM) were added to cultures in the early exponential phase (OD550 ≈ 0.15; T1), late exponential phase (OD550 ≈ 0.3–0.4; T2), or near the stationary phase of growth (OD550 ≈ 0.5–0.7; T3) and the evolution of OD values was followed at 37°C for at least 2 h. By default, the variation in cell viability was also determined. Negative and positive controls were run in parallel.

[4] = system: A549, IMR-90 and HeLa cells; conditions: 48 h
Method: DICAM’s cytotoxicity was determined employing a modified MTT assay as described elsewhere ([Antúnez-Mojica et al., 2016]) using human lung carcinoma epithelial cells A549, human fetal lung fibroblasts IMR-90, and human HeLa cervix carcinoma cells treated with increasing concentrations of DICAMs (0.8–200 µM range). A549 cells were grown in RPMI 1640 (Gibco; Fisher Scientific, Spain) supplemented with 10% FCS, 2 mM glutamine, 100 IU/mL penicillin and 100 μg/mL streptomycin. IMR-90 and HeLa cells were cultured in DMEM (Gibco; Fisher Scientific, Spain) supplemented with 10% FCS, 2 mM L-glutamine, 1 mM pyruvate, 100 IU/L penicillin, 100 μg/mL streptomycin and 40 μg/mL gentamycin. Cell viability was assessed after 48 h exposure to DICAMs. Vinblastine was used as a positive control. IC50 value is the concentration that gives 50% inhibition of cell growth and was determined using SigmaPlot (Systat) fitting to a Four Parameter Logistic curve.

| Structure (SMILES) | CFU's decay in the presence of 0.5 mM EDTA, Pa (data in parenthesis) [1] | Decrease in bacterial viability compared to controls in EDTA-containing buffer, P. aeruginosa [1] | Decrease in bacterial viability compared to controls in EDTA-containing buffer, E. coli (Escherichia coli DH10B) | CFU's decay in the presence of 0.5 mM EDTA, Ec (data in parenthesis) (Escherichia coli DH10B) | Time for dissipation of the transmembrane potential (S. pyogenes T membrane [3]) | other results |
| --- | --- | --- | --- | --- | --- | --- |
| CCCCCCCCCCCCCCCCCCNC(=O)[C@H](CCC(=O)O)NC(=O)[C@H]1CCCN1C(=O)[C@@H](N)CC(N)=O [DICAM 2, Asn- Pro -Glu-NH-C18H37 ·HCl] | (+) | approximately 90% | approximately 90% | (+) | – | – |
| CCCCCCCCCCCCCCCCCCNC(=O)[C@H](CCC(=O)O)NC(=O)[C@H]1CCCN1C(=O)[C@H](C)NC(=O)OCc1ccccc1 [DICAM 3, Cbz-Ala- Pro -Glu-NH-C18H37] | (−) ((−) ≤ 0.3 log-units) | – | – | (−) ((−) ≤ 0.3 log-units) | 5 to 10 min | Lag before steady increase in SYTOX Green fluorescence (S. pyogenes T membrane [2]; S. pyogenes T in PBS pH 7.2, SYTOX Green 5 µM, 37°C, dose-dependent lag): more than 7 min; Time to plateau of SYTOX green influx (incomplete influx) (S. pyogenes T membrane [2]; S. pyogenes T, below 12.5 µM compound): around 40 min |
| CCCCCCCCCCCCCCCCCCNC(=O)[C@H](CCC(=O)O)NC(=O)[C@H]1CCCN1C(=O)[C@H](C)N [DICAM 4, Ala- Pro -Glu-NH-C18H37 ·HCl] | (+) | approximately 90% | approximately 90% | (+) | – | Death, addition at T3, approximately 3 h (S. pneumoniae D39): ≥ 98%; Decrease of viability, addition at T3, approximately 3 h (S. pneumoniae D39): ≈ 1.7 log units; Decrease of viability, addition at T2, 30 min (S. pneumoniae D39; 30 min incubation): ≈ 3 log units; Decrease of viability, addition at T2, 3 h (S. pneumoniae D39; 3 h incubation): ~5 log units |
| CCCCCCCCCCCCCCCCCCNC(=O)[C@H](C)NC(=O)[C@H]1CCCN1C(=O)[C@H](C)N [DICAM 14, Ala- Pro -Ala-NH-C18H37 · HCl] | (−) ((−) ≤ 0.3 log-units) | – | – | (−) ((−) ≤ 0.3 log-units) | – | IC50 [4]: 7.3 µM |
| CCCCCCCCCCCCCCCCCCNC(=O)[C@H](CCC(=O)O)NC(=O)[C@H]1CCCN1C(=O)[C@H](CCC(=O)O)NC(=O)OCc1ccccc1 [DICAM 19, Cbz-Glu- Pro -Glu-NH-C18H37] | – | – | – | – | 5 to 10 min | – |
| CCCCCCCCCCCCCCCCCCNC(=O)[C@H](CCC(=O)O)NC(=O)[C@H]1CCCN1C(=O)[C@H](C)NC(C)=O [DICAM 24, Ac-Ala- Pro -Glu-NH-C18H37] | – | – | – | (−) ((−) ≤ 0.3 log-units) | – | – |
